Data published in patent US10632064B2, “Topical regional neuro affective therapy with cannabinoid combination products” (Afgin Pharma, LLC, priority 2015, dated 2020).
Values joined by “and” are separate entries in the source; they are usually repeats but may differ in a detail not shown here. Equal entries are not always repeated. “Also recorded” adds a separate entry of the source.

Assays:
[1] = system: patients having back/spine pain, fibromyalgia, and/or extremity pain; assay: Example 10: topical CBD (Table 4); format: in vivo, human
Protocol: (§1) In Example 10, 16 patients having back/spine pain, fibromyalgia, and/or extremity pain were treated with topical CBD at the back of the neck. The treatment comprised a dose of either 15 mg or 30 mg cannabinoid drugs, with the majority being CBD, the source of the CBD being CBD oil commercially available from CannaVest.

[2] = system: patients having a variety of conditions; assay: Example 18: topical CBD cream compounded from crystalline powder (Table 7); format: in vivo, human; details: 1% topical CBD; single patients
Protocol: The CBD was compounded in crystalline powder form rather than in CBD-oil form into the topical cream. The doses were 7.5 mg (0.75% topical CBD cream), 10 mg (1% topical CBD cream), 15 mg (1.5% topical CBD cream) or 20 mg (2% topical CBD cream).

[3] = system: person, cerebellar posterior fossa cyst, generalized seizure; assay: Example 13: 2% CBD cream to the nuchal region, absence seizures, EEG; format: in vivo, human
Protocol: In Example 13, person suffering from a cerebellar posterior fossa cyst, generalized seizure manifesting as standing and staring and unresponsive was treating in accordance with the present invention. FIG. 2 is an EEG showing a baseline EEG of the patient of Example 13. […] Previously, ethosuximide had been recommended for treatment, but the parents were reluctant to have the patient on a systemic […] therapy in view of the potential side effects. The patient was treated with a 2% CBD cream to the nuchal (back of the neck) region twice a day. After two weeks, the dosage regimen was changed to one application per day.

[4] = system: patient with head injury and seizures; assay: Example 14: 1 g of 1.6% CBD cream nuchal twice a day, intractable complex partial seizures, EEG; format: in vivo, human
Protocol: They presented with seizures (intractable complex partial seizures with secondary generalization; episodes of encephalopathy for 24 hours thereafter). […] They had had 5 craniotomies, and previously had been treated with Dilantin, Carbatrol, Keppra, Lamictal, and Depakote. Their current medications were Vimpat and Onfi (clobazam).
The patient was treated with 1 g of 1.6% CBD cream to the nuchal (back of the neck) region twice a day. […] The patient remained on Vimpat, and their dose of Onfi was reduced by half.

[5] = system: patients having seizures, encephalopathy, and/or spasticity; assay: Example 8: topical CBD at the back of the neck (Table 2); format: in vivo, human
Protocol: as §1, with “8, 34” for “10, 16”, “seizures, encephalopathy,” for “back/spine pain, fibromyalgia,”, “spasticity” for “extremity pain”

[6] = system: patients having Parkinson's disease, tremors, or movement disorders; assay: Example 11: topical CBD at the back of the neck (Table 5); format: in vivo, human
Protocol: as §1, with “11, 6” for “10, 16”, “Parkinson's disease, tremors, or movement disorders” for “back/spine pain, fibromyalgia, and/or extremity pain”

[7] = system: human patient having a remote head injury, s/p 4 craniotomies and intractable seizures; assay: Example 7: topical cannabidiol 40 mg at the BONATH, intractable seizures, EEG; format: in vivo; details: cannabidiol 40 mg topical at BONATH
Protocol: The efficacy of a topical cannabidiol formulation was studied in a human patient having a remote head injury, s/p 4 craniotomies and intractable seizures. The patient was treated with cannabidiol 40 mg applied to the BONATH in a topical formulation. There was attenuation of associated focal EEG abnormalities.

[8] = system: acute paranoid schizophrenia; details: cited from earlier work
[9] = system: patients having acute and chronic neurological and psychiatric conditions; assay: Example 12: topical CBD from crystalline powder (Table 6); format: in vivo, human
Protocol: In Example 12, 19 patients having acute and chronic neurological and psychiatric conditions were treated with topical CBD at the back of the neck. The treatment comprised a dose of either 15 mg or 30 mg cannabinoid drugs, with the majority being CBD, the source of the CBD being CBD crystalline powder oil commercially available from CannaVest.

[10] = system: patient with stroke and focal seizures; assay: Example 16: 1 g of 1.6% CBD cream nuchal, stroke and focal seizures, EEG; format: in vivo, human
Protocol: In Example 16, a patient presented with stroke and focal seizures. […]. FIG. 9 is a baseline EEG taken at the initial examination, showing left fronto-central seizure focus.
The patient was treated with 1 g of 1.6% CBD cream to the nuchal (back of the neck). […] They were able to return to work as a beterinarian and do surgery, which was unexpected as their Rehab MD had previously advised them that we would have to retire.

[11] = system: human patient with episodic severe post-operative neuralgic head pain; assay: Example 6: topical cannabidiol 40 mg at the BONATH, post-operative neuralgic head pain, EEG; format: in vivo
Protocol: The efficacy of a topical cannabidiol formulation was studied in a human patient (s/p resection right clival meningioma) suffering from episodic severe post-operative neuralgic head pain suffering from severe right-sided neuralgic head pain every 15-20 seconds. The patient was treated with cannabidiol 40 mg applied to the BONATH in a topical formulation. There was attenuation of associated focal EEG abnormalities. […] The neuralgic head pain was less severe by about 50% (frequency decreased to every 2-5 minutes).

[12] = twice a day CBD treatment to the nuchal region
[13] = cannabidiol 40 mg topical at BONATH

## C=C(C)[C@@H]1CCC(C)=C[C@H]1c1c(O)cc(CCCCC)cc1O [CBD, cannabidiol]
[1]; 15 mg or 30 mg cannabinoid drugs (CBD oil) topical, one patient per entry
  result after topical CBD, in words (Table 4): Right hand symptoms improved after topical; also recorded: improved strength; also recorded: relief better than Tramadol; also recorded: improved mobility and back pain relief; also recorded: back of neck and back 3×/day; pain relief
[1]; after topical CBD, single patients
  pain reduction/relief: pain diminished 40% with improved and 30-40% and 30% (2×) and 50% and 60% reduction in chronic pain within a few
[1]; person, before 6 of 10, after 10 minutes
  left lower extremity pain after topical CBD: 2 /10
[1]; single patients
  time after topical CBD at which the effect was seen: 5 minutes (2×) and 10 minutes and within 10 minutes. and Within 15 minutes of topical CBD application and ≤ 15 minutes and ≤ 10 minutes and within 2 minutes of application.
[2]
  pain decrease: 50%
[3]; 2% CBD cream to nuchal region twice a day
  clinical findings at the two week check-up: No seizures were noted; also recorded: no long bed wetting; also recorded: reading levels had increased two levels
[3]; 5 minutes after the start of therapy (FIG. 3)
  EEG post-treatment: attenuated seizure focus
[3]; 8 minutes after the start of therapy (FIG. 4)
  EEG post-treatment: further attenuation of seizure focus
[4]; 16 mg nuchal topical CBD twice daily with Vimpat and Onfi, one year follow-up and 20 months
  seizure status on treatment: the patient was seizure-free; also recorded: remained seizure-free since June 2014
[4]; one year follow-up (FIG. 6)
  follow-up EEG post-treatment: right fast activity and sharp waves attenuated; also recorded: no longer showing seizure potential
[5]; 15 mg or 30 mg, back of neck, single patients
  time after topical CBD at which the effect was seen: 15 minutes after application of topical CBD and 10 minutes after topical CBD to back of and state within 10 minutes. and ≤ 15 minutes and 3 minutes after topical CBD application, and 30 minutes after topical CBD to back of
[5]; after 2 months use, person with Aicardi syndrome, intractable seizures
  seizure frequency reduced: reduced 60%. Prior doses of Lamicatal and
[5]; after one application/treatment of topical CBD to back of neck, single patients
  spasticity decrease/improvement: 80% and Severe baseline spasticity improved 70% and spasticity by 30% from baseline. and 30% reduction in spasticity in all 4
[5]; person s/p head injury, topical CBD to back of neck
  duration of effect: lasted 8 hours. Now on 3×/day.
[6]; 15 mg or 30 mg cannabinoid drugs (CBD oil) at back of neck, one patient per entry
  result after topical CBD, in words (Table 5): resolved festination/small steppage; also recorded: Facial twitching improved after
[6]; single patients
  time after topical CBD at which the effect was seen: 15 minutes after one application and 10 minutes and 10 minutes after topical CBD appli- and 5 minutes; now using 3×/ day.
[7]
  EEG post-treatment: the right fast activity and sharp waves were attenuated
[8]; after 2 weeks
  psychotic symptoms: significant decrease in psychotic symptoms
[8]; compared with amisulpride
  side effects: significantly fewer side effects
[9]; 0.75% topical CBD to neck and 1% to back
  result in words (Table 6): 1% to back with patient feeling more alert
[9]; 1% topical CBD to neck and back
  time after application at which the effect was seen: ≤ 1 min
[9]; 1% topical CBD, one patient per entry
  result in words (Table 6): became more alert and spontaneous; also recorded: spasticity improved with better movement of; also recorded: improved pain within three minutes. Stated; also recorded: worked better than oil-based CBD they had; also recorded: focus, clearer thinking, and reduced anxiety
[9]; 1% topical CBD, single patients
  pain decrease: 50% and pain 20% within a few minutes. and additional 30% from prior baseline.
[9]; 1.5% topical (powdered) CBD cream
  result in words (Table 6): 1.5% topical CBD reduced neck tension and relieved neuropathic pain. Had been using and relieved anxiety and improved demeanor.
[9]; 2% topical CBD cream
  result in words (Table 6): relieved back and lower extremity; also recorded: relieved neck pain and tension from
[9]; 2% topical CBD cream to back of neck, from 8 of 10, in few minutes
  neck pain and tension level after treatment: 8 of 10 to 2 in few minutes.
[10]; 10 minutes after application of 1 g of 1.6% CBD cream (FIG. 10)
  EEG after CBD dose: attenuated seizure focus
[10]; [12]
  clinical result: remains seizure free; also recorded: helping their spastic weakness from the stroke
  time seizure free after initiation of treatment: about 9 months
[11]; [13]
  EEG after nuchal administration: attenuation of the right temporal waves to a more normal state
  duration of EEG improvement and clinical benefit: The EEG improvement lasted several minutes, but the clinical benefit lasted several hours
  neuralgic head pain less severe: about 50%
[11]; cannabidiol 40 mg topical, before every 15-20 seconds
  frequency of neuralgic head pain after treatment (every ...): 2 to 5 min
